Reference: patent US9302999B2, “Substituted triazoles as herbicides” (E. I. DU PONT DE NEMOURS AND COMPANY, priority 2012, dated 2016)

Key:
Type in all cases: in vivo
corn (Zea mays) = assay: Test A pre-/postemergence: corn
Method in brief: (§1)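 Injury was scored visually on a 0 (no effect) to 100 (complete control) scale versus untreated controls roughly ten days after treatment in the greenhouse. Compounds, formulated in surfactant-containing non-phytotoxic solvent, went on as soil-directed preemergence spray or postemergence to one- to two-leaf plants 2–10 cm tall.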

[1] = test system: barnyardgrass (Echinochloa crus-galli); assay: Test A pre-/postemergence: barnyardgrass
Method in brief: as §1

[2] = test system: crabgrass, large (large crabgrass, Digitaria sanguinalis); assay: Test A pre-/postemergence: crabgrass, large
Method in brief: as §1

[3] = test system: wheat (Triticum aestivum); assay: Test A pre-/postemergence: wheat
Method in brief: as §1

[4] = test system: sedge, umbrella (small-flower umbrella sedge Cyperus difformis); assay: Test B flooded paddy: sedge, umbrella; details: Flood, applied to paddy water at 2-leaf stage, visually evaluated after 13 to 15 days
Method in brief: (§2)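 Plants were grown to the 2-leaf stage and pots flooded to 3 cm above soil. Compounds were applied directly into the paddy water, with depth kept for the test. After 13–15 days in greenhouse, response was rated visually against controls on a 0 (no effect) to 100 (complete control) scale.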

[5] = test system: foxtail, giant (giant foxtail, Setaria faberii); assay: Test A pre-/postemergence: foxtail, giant
Method in brief: as §1

[6] = test system: velvetleaf (Abutilon theophrasti); assay: Test A pre-/postemergence: velvetleaf
Method in brief: as §1

rice (Oryza sativa) = assay: Test B flooded paddy: rice; details: Flood, applied to paddy water at 2-leaf stage, visually evaluated after 13 to 15 days
Method in brief: as §2

[7] = test system: barnyardgrass (Echinochloa crus-galli); assay: Test B flooded paddy: barnyardgrass; details: Flood, applied to paddy water at 2-leaf stage, visually evaluated after 13 to 15 days
Method in brief: as §2

[8] = test system: morningglory (Ipomoea spp.); assay: Test A pre-/postemergence: morningglory
Method in brief: as §1

[9] = test system: ducksalad (Heteranthera limosa); assay: Test B flooded paddy: ducksalad; details: Flood, applied to paddy water at 2-leaf stage, visually evaluated after 13 to 15 days
Method in brief: as §2

[10] = test system: pigweed (Amaranthus retroflexus); assay: Test A pre-/postemergence: pigweed
Method in brief: as §1

[11] = Postemergence, 125 g ai/ha, 0 to 100 scale, 0 is no effect, 100 is complete control
[12] = Postemergence, 500 g ai/ha, 0 to 100 scale, 0 is no effect, 100 is complete control
[13] = Preemergence, 125 g ai/ha, 0 to 100 scale where 0 is no effect and 100 is complete control
[14] = Preemergence, 500 g ai/ha, 0 to 100 scale (0 no effect, 100 complete control)

CCCCc1nn(-c2ccc(C(F)(F)F)cc2)nc1Oc1ccnc(C(F)(F)F)c1 [Compound 184]
Plant response rating, Corn (corn (Zea mays); [11]): 10 | Corn plant response rating (corn (Zea mays); [12]): 20 | Plant response rating, Corn (corn (Zea mays); [13]): 0 | Plant response rating, Corn (corn (Zea mays); [14]): 0 | Plant response rating, Barnyardgrass [1, 11]: 10 | Barnyardgrass plant response rating [1, 12]: 30 | Plant response rating, Barnyardgrass [1, 13]: 0 | Plant response rating, Barnyardgrass [1, 14]: 50 | Plant response rating, Crabgrass, Large [2, 11]: 50 | Crabgrass, Large plant response rating [2, 12]: 90 | Plant response rating, Crabgrass, Large [2, 13]: 70 | Plant response rating, Crabgrass, Large [2, 14]: 100 | Plant response rating, Wheat [3, 11]: 10 | Wheat plant response rating [3, 12]: 20 | Plant response rating, Wheat [3, 13]: 0 | Plant response rating, Wheat [3, 14]: 0 | Plant response rating, Sedge, Umbrella (0 to 100 scale, 0 is no effect, 100 is complete control) ([4]; 250 g ai/ha): 60 | Plant response rating, Foxtail, Giant [5, 11]: 30 | Foxtail, Giant plant response rating [5, 12]: 80 | Plant response rating, Foxtail, Giant [5, 13]: 70 | Plant response rating, Foxtail, Giant [5, 14]: 90 | Plant response rating, Velvetleaf [6, 11]: 40 | Velvetleaf plant response rating [6, 12]: 90 | Plant response rating, Velvetleaf [6, 13]: 0 | Plant response rating, Velvetleaf [6, 14]: 30 | Plant response rating, Rice (0 to 100 scale, 0 is no effect, 100 is complete control) (rice (Oryza sativa); 250 g ai/ha): 25 | Plant response rating, Barnyardgrass (0 to 100 scale, 0 is no effect, 100 is complete control) ([7]; 250 g ai/ha): 25 | Plant response rating, Morningglory [8, 11]: 30 | Morningglory plant response rating [8, 12]: 100 | Plant response rating, Morningglory [8, 13]: 0 | Plant response rating, Morningglory [8, 14]: 10 | Plant response rating, Ducksalad (0 to 100 scale, 0 is no effect, 100 is complete control) ([9]; 250 g ai/ha): 0 | Plant response rating, Pigweed [10, 11]: 100 | Pigweed plant response rating [10, 12]: 100 | Plant response rating, Pigweed [10, 13]: 90 | Plant response rating, Pigweed [10, 14]: 100

CCOc1nn(-c2ccc(F)cc2F)nc1Cc1ccnc(C(F)(F)F)c1 [Compound 190]
Plant response rating, Corn (corn (Zea mays); [11]): 60 | Corn plant response rating (corn (Zea mays); [12]): 90 | Plant response rating, Corn (corn (Zea mays); [13]): 30 | Plant response rating, Corn (corn (Zea mays); [14]): 90 | Plant response rating, Barnyardgrass [1, 11]: 100 | Barnyardgrass plant response rating [1, 12]: 100 | Plant response rating, Barnyardgrass [1, 13]: 100 | Plant response rating, Barnyardgrass [1, 14]: 100 | Plant response rating, Crabgrass, Large [2, 11]: 100 | Crabgrass, Large plant response rating [2, 12]: 100 | Plant response rating, Crabgrass, Large [2, 13]: 100 | Plant response rating, Crabgrass, Large [2, 14]: 100 | Plant response rating, Wheat [3, 11]: 70 | Wheat plant response rating [3, 12]: 100 | Plant response rating, Wheat [3, 13]: 60 | Plant response rating, Wheat [3, 14]: 80 | Plant response rating, Sedge, Umbrella (0 to 100 scale, 0 is no effect, 100 is complete control) ([4]; 125 g ai/ha): 95 | Plant response rating, Foxtail, Giant [5, 11]: 100 | Foxtail, Giant plant response rating [5, 12]: 100 | Plant response rating, Foxtail, Giant [5, 13]: 100 | Plant response rating, Foxtail, Giant [5, 14]: 100 | Plant response rating, Velvetleaf [6, 11]: 100 | Velvetleaf plant response rating [6, 12]: 100 | Plant response rating, Velvetleaf [6, 13]: 40 | Plant response rating, Velvetleaf [6, 14]: 100 | Plant response rating, Rice (0 to 100 scale, 0 is no effect, 100 is complete control) (rice (Oryza sativa); 125 g ai/ha): 50 | Plant response rating, Barnyardgrass (0 to 100 scale, 0 is no effect, 100 is complete control) ([7]; 125 g ai/ha): 70 | Plant response rating, Morningglory [8, 11]: 100 | Morningglory plant response rating [8, 12]: 100 | Plant response rating, Morningglory [8, 13]: 80 | Plant response rating, Morningglory [8, 14]: 80 | Plant response rating, Ducksalad (0 to 100 scale, 0 is no effect, 100 is complete control) ([9]; 125 g ai/ha): 70 | Plant response rating, Pigweed [10, 11]: 100 | Pigweed plant response rating [10, 12]: 100 | Plant response rating, Pigweed [10, 13]: 100 | Plant response rating, Pigweed [10, 14]: 100

CCCOc1nn(-c2ccc(C(F)(F)F)cc2)nc1Cc1ccnc(C(F)(F)F)c1 [Compound 191]
Plant response rating, Corn (corn (Zea mays); [11]): 30 | Corn plant response rating (corn (Zea mays); [12]): 80 | Plant response rating, Corn (corn (Zea mays); [13]): 20 | Plant response rating, Corn (corn (Zea mays); [14]): 60 | Plant response rating, Barnyardgrass [1, 11]: 60 | Barnyardgrass plant response rating [1, 12]: 100 | Plant response rating, Barnyardgrass [1, 13]: 90 | Plant response rating, Barnyardgrass [1, 14]: 100 | Plant response rating, Crabgrass, Large [2, 11]: 90 | Crabgrass, Large plant response rating [2, 12]: 100 | Plant response rating, Crabgrass, Large [2, 13]: 100 | Plant response rating, Crabgrass, Large [2, 14]: 100 | Plant response rating, Wheat [3, 11]: 70 | Wheat plant response rating [3, 12]: 80 | Plant response rating, Wheat [3, 13]: 40 | Plant response rating, Wheat [3, 14]: 70 | Plant response rating, Sedge, Umbrella (0 to 100 scale, 0 is no effect, 100 is complete control) ([4]; 125 g ai/ha): 50 | Plant response rating, Foxtail, Giant [5, 11]: 90 | Foxtail, Giant plant response rating [5, 12]: 100 | Plant response rating, Foxtail, Giant [5, 13]: 100 | Plant response rating, Foxtail, Giant [5, 14]: 100 | Plant response rating, Velvetleaf [6, 11]: 80 | Velvetleaf plant response rating [6, 12]: 100 | Plant response rating, Velvetleaf [6, 13]: 30 | Plant response rating, Velvetleaf [6, 14]: 80 | Plant response rating, Rice (0 to 100 scale, 0 is no effect, 100 is complete control) (rice (Oryza sativa); 125 g ai/ha): 50 | Plant response rating, Barnyardgrass (0 to 100 scale, 0 is no effect, 100 is complete control) ([7]; 125 g ai/ha): 50 | Plant response rating, Morningglory [8, 11]: 100 | Morningglory plant response rating [8, 12]: 100 | Plant response rating, Morningglory [8, 13]: 20 | Plant response rating, Morningglory [8, 14]: 30 | Plant response rating, Ducksalad (0 to 100 scale, 0 is no effect, 100 is complete control) ([9]; 125 g ai/ha): 20 | Plant response rating, Pigweed [10, 11]: 100 | Pigweed plant response rating [10, 12]: 100 | Plant response rating, Pigweed [10, 13]: 100 | Plant response rating, Pigweed [10, 14]: 100

CC(C)Oc1nn(-c2ccc(C(F)(F)F)cc2)nc1Cc1ccnc(C(F)(F)F)c1 [Compound 192]
Plant response rating, Corn (corn (Zea mays); [11]): 10 | Corn plant response rating (corn (Zea mays); [12]): 30 | Plant response rating, Corn (corn (Zea mays); [13]): 0 | Plant response rating, Corn (corn (Zea mays); [14]): 0 | Plant response rating, Barnyardgrass [1, 11]: 0 | Barnyardgrass plant response rating [1, 12]: 20 | Plant response rating, Barnyardgrass [1, 13]: 0 | Plant response rating, Barnyardgrass [1, 14]: 0 | Plant response rating, Crabgrass, Large [2, 11]: 10 | Crabgrass, Large plant response rating [2, 12]: 30 | Plant response rating, Crabgrass, Large [2, 13]: 0 | Plant response rating, Crabgrass, Large [2, 14]: 70 | Plant response rating, Wheat [3, 11]: 0 | Wheat plant response rating [3, 12]: 10 | Plant response rating, Wheat [3, 13]: 0 | Plant response rating, Wheat [3, 14]: 0 | Plant response rating, Sedge, Umbrella (0 to 100 scale, 0 is no effect, 100 is complete control) ([4]; 250 g ai/ha): 0 | Plant response rating, Foxtail, Giant [5, 11]: 10 | Foxtail, Giant plant response rating [5, 12]: 20 | Plant response rating, Foxtail, Giant [5, 13]: 0 | Plant response rating, Foxtail, Giant [5, 14]: 80 | Plant response rating, Velvetleaf [6, 11]: 20 | Velvetleaf plant response rating [6, 12]: 100 | Plant response rating, Velvetleaf [6, 13]: 0 | Plant response rating, Velvetleaf [6, 14]: 0 | Plant response rating, Rice (0 to 100 scale, 0 is no effect, 100 is complete control) (rice (Oryza sativa); 250 g ai/ha): 0 | Plant response rating, Barnyardgrass (0 to 100 scale, 0 is no effect, 100 is complete control) ([7]; 250 g ai/ha): 0 | Plant response rating, Morningglory [8, 11]: 30 | Morningglory plant response rating [8, 12]: 70 | Plant response rating, Morningglory [8, 13]: 0 | Plant response rating, Morningglory [8, 14]: 10 | Plant response rating, Ducksalad (0 to 100 scale, 0 is no effect, 100 is complete control) ([9]; 250 g ai/ha): 0 | Plant response rating, Pigweed [10, 11]: 40 | Pigweed plant response rating [10, 12]: 100 | Plant response rating, Pigweed [10, 13]: 10 | Plant response rating, Pigweed [10, 14]: 40
